# According to patent publication US11266686B2, “Metal complexes and methods of treatment” (PROCYPRA THERAPEUTICS LLC, priority 2013, dated 2022):
# Tested on: MPTP lesioned mice
# Assay: Stool frequency in MPTP lesioned mice
# Assay type: in vivo, C57BL/6 mice
# Conditions: versus vehicle or untreated
# Description: Several rodent models of Parkinson's Disease have shown gastrointestinal dysfunction, which has been correlated with the loss of neuronal subpopulations within the enteric nervous system. Intraperitoneal administration of MPTP (1-methyl-4-phenyl-1,2,3,6-tetrahydropyridine) caused a significant reduction in the number of dopaminergic neurons within the substantia nigra pars compacta of C57BL/6 mice. A reduction in neuronal subpopulations within the myenteric plexus of the ileum 21 days after lesioning was also detected and was concomitant with a reduction in stool frequency, indicative of digestive dysfunction.
# Patients with neurological diseases, such as Parkinson's Diseases experiencing gastrointestinal disfunction such as constipation, may be associated with the loss of neuronal populations in conjunction with enteric glial cell reactivity within the myenteric plexus of the gastrointestinal tract. Treatment of these patients with metal complexes, such as CuATSM, that are neuroprotective in the central nervous system provides symptom release and also results in disease modifying in the gastrointestinal tract.
# MPTP lesioned mice may be treated with the NCD of CuATSM, and the results are compared with untreated mice.
smiles,measurement,value
"CNC1=NN=C(C)C(C)=NN=C(NC)[S][Cu][S]1 [CuATSM, Copper(II) diacetyl-di(N4-methyl)thiosemicarbazone, reference compound]",stool frequency,improved stool frequency
